From PubChem BioAssay (NCI)
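Exposure lasted 48 hours, with cells grown in 96-well plates and compounds tested at five concentrations. GI50 is the concentration that inhibits growth by half. TGI: total growth inhibition.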

Experiments:
Test in all cases: DTP human tumour cell line panel, 48 h
HOP-62 NSCLC = test system: HOP-62 NSCLC
OVCAR-8 ovarian = test system: OVCAR-8 ovarian
RPMI-8226 leukemia = test system: RPMI-8226 leukemia
HL-60(TB) leukemia = test system: HL-60(TB) leukemia
K-562 leukemia = test system: K-562 leukemia
ACHN renal = test system: ACHN renal
HOP-92 NSCLC = test system: HOP-92 NSCLC
HCT-15 colon = test system: HCT-15 colon
HS 578T breast = test system: HS 578T breast
NCI/ADR-RES ovarian = test system: NCI/ADR-RES ovarian

| Structure (SMILES) | TGI (HOP-62 NSCLC) | TGI (OVCAR-8 ovarian) | TGI (RPMI-8226 leukemia) | TGI (HL-60(TB) leukemia) | TGI (K-562 leukemia) | TGI (ACHN renal) | TGI (HOP-92 NSCLC) | TGI (HCT-15 colon) | GI50 (OVCAR-8 ovarian) | GI50 (HS 578T breast) | TGI (HS 578T breast) | GI50 (HL-60(TB) leukemia) | GI50 (NCI/ADR-RES ovarian) | TGI (NCI/ADR-RES ovarian) | GI50 (K-562 leukemia) | GI50 (ACHN renal) | GI50 (HCT-15 colon) | GI50 (HOP-62 NSCLC) | GI50 (RPMI-8226 leukemia) |
| --- | --- | --- | --- | --- | --- | --- | --- | --- | --- | --- | --- | --- | --- | --- | --- | --- | --- | --- | --- |
| CC(=O)CC(=O)CCC(=O)Nc1cccc(C(F)(F)F)c1 | > 100 µM | > 100 µM | > 100 µM | > 100 µM | > 100 µM | > 100 µM | > 100 µM | > 100 µM | – | – | – | – | – | – | – | – | – | – | – |
| N#C/C(=C1\OC(=N)C(c2ccc(Cl)cc2Cl)C1=O)c1ccc(Cl)cc1Cl (centres undefined) | – | > 100 µM | > 100 µM | > 100 µM | > 100 µM | > 100 µM | > 100 µM | > 100 µM | – | – | – | – | – | – | – | – | – | – | – |
| C=CC(=O)N[C@@H](/C=C/C(=O)OCC)Cc1ccc(-c2cc(Cl)cc(Cl)c2)cc1 | – | > 100 µM | – | 60 µM | > 100 µM | > 100 µM | – | > 100 µM | 8.89 µM | 16.3 µM | 78.4 µM | 8.22 µM | 11.9 µM | 73.3 µM | 15.7 µM | 16.1 µM | 8.01 µM | – | – |
| CC1CCC2(C)C(CC=C(C=O)C2(O)C=O)C12CO2 (centres undefined) | 40.3 µM | 6.69 µM | 6.83 µM | 2.92 µM | 4.67 µM | 3.93 µM | 5.29 µM | 5.95 µM | – | – | – | – | – | – | – | – | – | – | – |
| COc1ccc(-c2c3c(N)c4c(nc3nc3c2c(C)nn3-c2ccccc2)CCCC4)cc1 | 29.3 µM | 11.4 µM | 4.32 µM | 4.3 µM | 6.85 µM | 15.1 µM | – | 10.9 µM | 2.82 µM | 12.5 µM | 37.2 µM | 2.12 µM | 3.41 µM | 14.2 µM | 2.3 µM | 4.32 µM | 3.08 µM | 14.1 µM | 1.92 µM |
| O=C(Cc1ccccc1)C(c1ccccc1)S(=O)(=O)c1ccccc1 (centres undefined) | > 100 µM | > 100 µM | > 100 µM | > 100 µM | > 100 µM | > 100 µM | > 100 µM | > 100 µM | – | – | – | – | – | – | – | – | – | – | – |
| Clc1ccc([I+]c2ccc(Cl)cc2Cl)c(Cl)c1 | 4.91 µM | 4.8 µM | 5.25 µM | 4.58 µM | 5.1 µM | 3.77 µM | – | 5.25 µM | 2.1 µM | 2.48 µM | 8.81 µM | 2.09 µM | 9.47 µM | 32 µM | 2.03 µM | 1.89 µM | 2.06 µM | 2.27 µM | 2.19 µM |
| O=C(CO)C1CC2C=CC1C2 (centres undefined) | > 100 µM | > 100 µM | > 100 µM | > 100 µM | > 100 µM | > 100 µM | > 100 µM | > 100 µM | – | – | – | – | – | – | – | – | – | – | – |
